Measured values: patent US12116388B2, “Amylin receptor agonists” (Novo Nordisk A/S, priority 2022, dated 2024)
Starred links: 1 amine or outer side, 2 acyl side, 3 side chain; linkers in the order of their positions; H or OH if unused. Residues, ends and D or L forms follow the SMILES beside them. *: point of attachment. C18 diacid = O=C(O)CCCCCCCCCCCCCCCCC(=O)*; γGlu = O=C(O)[C@H](CCC(=O)[*:2])N[*:1]

What was measured:
[1] = molecular target: T1, human amylin receptor (hAMYR3) (Homo sapiens, UniProt O60896+P30988); assay: Human amylin receptor (hAMYR3) in vitro potency assay, CRE-luciferase reporter in BHK cells; assay type: cell-based; details: BHK hAMYR3/CRE-Luc cells, 3 hours incubation, assay buffer with 1% ovalbumin
T1 construct: host or cells: BHK (Baby Hamster Kidney), Hollex-1 cell line further transfected with RAMP3
T1 sequence (O60896 24-148, one chain of several): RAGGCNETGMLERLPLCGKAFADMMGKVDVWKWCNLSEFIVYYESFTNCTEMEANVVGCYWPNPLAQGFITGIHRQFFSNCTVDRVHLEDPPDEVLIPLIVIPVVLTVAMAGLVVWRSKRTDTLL
In short: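 BHK cells stably expressing human calcitonin receptor (a) plus RAMP3 and a CRE-luciferase reporter, seeded overnight, then exposed to 7-point 7-fold dilutions (often from ~10 nM) in DMEM/HEPES buffer with 1% ovalbumin for 3 h at 37 °C. Luciferase luminescence read after SteadyLite Plus addition.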

[2] = molecular target: T2, human calcitonin receptor (hCTR) (Homo sapiens, UniProt P30988); assay: Human calcitonin receptor (hCTR) in vitro potency assay, CRE-luciferase reporter in BHK cells; assay type: cell-based; details: BHK hCTR/CRE-Luc cells, 3 hours incubation, assay buffer with 1% ovalbumin; read-out: hCalcR potency, EC50
T2 construct: host or cells: BHK (Baby Hamster Kidney), Hollex-1 cell line
T2 sequence (P30988 25-474): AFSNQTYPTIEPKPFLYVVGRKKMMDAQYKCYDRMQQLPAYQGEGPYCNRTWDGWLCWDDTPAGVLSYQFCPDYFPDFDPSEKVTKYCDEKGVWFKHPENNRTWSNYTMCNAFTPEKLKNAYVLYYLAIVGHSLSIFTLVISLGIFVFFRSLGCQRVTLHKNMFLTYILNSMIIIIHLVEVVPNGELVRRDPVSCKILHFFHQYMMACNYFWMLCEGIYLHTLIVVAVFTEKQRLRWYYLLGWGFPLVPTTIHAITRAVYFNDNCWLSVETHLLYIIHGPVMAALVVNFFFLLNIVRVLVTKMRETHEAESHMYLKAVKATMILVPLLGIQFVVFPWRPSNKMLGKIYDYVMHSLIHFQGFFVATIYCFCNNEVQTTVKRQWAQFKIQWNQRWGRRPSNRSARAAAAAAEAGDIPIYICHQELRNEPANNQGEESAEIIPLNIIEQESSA
In short: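 BHK cells stably co-expressing human calcitonin receptor and a CRE-luciferase reporter, seeded the day before, were exposed to 7-fold serial dilutions (7 concentrations, often starting near 10 nM) in DMEM/HEPES/1% ovalbumin buffer for 3 h at 37 °C. Luminescence was then read after SteadyLite Plus addition.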

| EC50 [1] [pM] | EC50 [2] [pM] | SMILES |
| --- | --- | --- |
| 2.96 | 3.22 | CC[C@H](C)[C@H](NC(=O)[C@H](C)NC(=O)CNC(=O)[C@H](Cc1ccccc1)NC(=O)[C@@H]1CCCN1C(=O)[C@H](CC(=O)O)NC(=O)[C@H](CO)NC(=O)[C@H](CO)NC(=O)[C@H](Cc1c[nH]cn1)NC(=O)[C@H](Cc1c[nH]cn1)NC(=O)[C@H](CC(C)C)NC(=O)[C@H](Cc1ccccc1)NC(=O)[C@H](CCC(=O)O)NC(=O)[C@H](C)NC(=O)[C@H](CC(C)C)NC(=O)[C@H](CCCNC(=N)N)NC(=O)[C@H](CCC(N)=O)NC(=O)[C@@H](NC(=O)[C@H](CCC(N)=O)NC(=O)[C@H](C)NC(=O)[C@@H](NC(=O)[C@H](CO)NC(=O)[C@H](CC(C)C)NC(=O)[C@H](Cc1c[nH]cn1)NC(=O)[C@H](CO)NC(=O)[C@H](C)NC(=O)CC[C@H](NC(=O)CCCCCCCCCCCCCCCCC(=O)O)C(=O)O)[C@@H](C)O)[C@@H](C)O)C(=O)N1CCC[C@H]1C(=O)N[C@@H](CO)C(=O)N[C@@H](CO)C(=O)N[C@H](C(=O)N[C@@H](CC(=O)O)C(=O)N[C@H](C(=O)NCC(=O)N1CCC[C@H]1C(=O)N[C@@H](CC(=O)O)C(=O)N[C@H](C(=O)N[C@@H](Cc1ccc(O)cc1)C(N)=O)[C@@H](C)O)C(C)C)[C@@H](C)O [Compound 36, N^1-[(4S)-4-carboxy-4-(17-carboxyheptadecanoylamino)butanoyl]-[Ala1,Ser2,His3,Leu4,Ser5,Ala7,Gln8,Glu14,His17,Asp21,Pro22,Pro27,Asp31,Pro34,Asp35]-human amylin] ({C18 diacid-γGlu}-ASHLSTAQTQRLAEFLHHSSDPFGAIPSSTDVGPDTY-NH2) |
| 1.68 | 2.16 | CC[C@H](C)[C@H](NC(=O)[C@H](C)NC(=O)CNC(=O)[C@H](Cc1ccccc1)NC(=O)[C@@H]1CCCN1C(=O)[C@H](CC(=O)O)NC(=O)[C@H](CO)NC(=O)[C@H](CO)NC(=O)[C@H](Cc1c[nH]cn1)NC(=O)[C@H](Cc1c[nH]cn1)NC(=O)[C@H](CC(C)C)NC(=O)[C@H](Cc1ccccc1)NC(=O)[C@H](CCC(=O)O)NC(=O)[C@H](C)NC(=O)[C@H](CC(C)C)NC(=O)[C@H](CCCNC(=N)N)NC(=O)[C@H](C)NC(=O)[C@@H](NC(=O)[C@H](CCC(N)=O)NC(=O)[C@H](C)NC(=O)[C@@H](NC(=O)[C@H](CO)NC(=O)[C@H](CC(C)C)NC(=O)[C@H](Cc1c[nH]cn1)NC(=O)[C@H](CO)NC(=O)[C@H](C)NC(=O)CC[C@H](NC(=O)CCCCCCCCCCCCCCCCC(=O)O)C(=O)O)[C@@H](C)O)[C@@H](C)O)C(=O)N1CCC[C@H]1C(=O)N[C@@H](CO)C(=O)N[C@@H](CO)C(=O)N[C@H](C(=O)N[C@@H](CC(=O)O)C(=O)N[C@H](C(=O)NCC(=O)N1CCC[C@H]1C(=O)N[C@@H](CC(=O)O)C(=O)N[C@H](C(=O)N[C@@H](Cc1ccc(O)cc1)C(N)=O)[C@@H](C)O)C(C)C)[C@@H](C)O [Compound 37, N^1-[(4S)-4-carboxy-4-(17-carboxyheptadecanoylamino)butanoyl]-[Ala1,Ser2,His3,Leu4,Ser5,Ala7,Gln8,Ala10,Glu14,His17,Asp21,Pro22,Pro27,Asp31,Pro34,Asp35]-human amylin] ({C18 diacid-γGlu}-ASHLSTAQTARLAEFLHHSSDPFGAIPSSTDVGPDTY-NH2) |
| 1.97 | 3.15 | CC[C@H](C)[C@H](NC(=O)[C@@H]1CCCN1C(=O)CNC(=O)[C@H](Cc1ccccc1)NC(=O)[C@H](CC(N)=O)NC(=O)[C@H](CC(=O)O)NC(=O)[C@H](CO)NC(=O)[C@H](CO)NC(=O)[C@H](Cc1c[nH]cn1)NC(=O)[C@H](Cc1c[nH]cn1)NC(=O)[C@H](CC(C)C)NC(=O)[C@H](Cc1ccccc1)NC(=O)[C@H](CCC(=O)O)NC(=O)[C@H](C)NC(=O)[C@H](CC(C)C)NC(=O)[C@H](CCCNC(=N)N)NC(=O)[C@H](C)NC(=O)[C@@H](NC(=O)[C@H](CCC(N)=O)NC(=O)[C@H](C)NC(=O)[C@@H](NC(=O)[C@H](CO)NC(=O)[C@H](CC(C)C)NC(=O)[C@H](Cc1c[nH]cn1)NC(=O)[C@H](CO)NC(=O)[C@H](C)NC(=O)CC[C@H](NC(=O)CCCCCCCCCCCCCCCCC(=O)O)C(=O)O)[C@@H](C)O)[C@@H](C)O)C(=O)N[C@@H](CC(C)C)C(=O)N1CCC[C@H]1C(=O)N1CCC[C@H]1C(=O)N[C@H](C(=O)N[C@@H](CC(=O)O)C(=O)N[C@H](C(=O)NCC(=O)N[C@@H](CO)C(=O)N[C@@H](CC(N)=O)C(=O)N[C@H](C(=O)N[C@@H](Cc1ccc(O)cc1)C(N)=O)[C@@H](C)O)C(C)C)[C@@H](C)O [Compound 38, N^1-[(4S)-4-carboxy-4-(17-carboxyheptadecanoylamino)butanoyl]-[Ala1,Ser2,His3,Leu4,Ser5,Ala7,Gln8,Ala10,Glu14,His17,Asp21,Pro25,Pro28,Pro29,Asp31]-human amylin] ({C18 diacid-γGlu}-ASHLSTAQTARLAEFLHHSSDNFGPILPPTDVGSNTY-NH2) |

Continued, compound first:

| SMILES | EC50 [1] [pM] | EC50 [2] [pM] |
| --- | --- | --- |
| CC[C@H](C)[C@H](NC(=O)[C@@H]1CCCN1C(=O)CNC(=O)[C@H](Cc1ccccc1)NC(=O)[C@H](CC(N)=O)NC(=O)[C@H](CC(=O)O)NC(=O)[C@H](CO)NC(=O)[C@H](CO)NC(=O)[C@H](Cc1c[nH]cn1)NC(=O)[C@H](Cc1c[nH]cn1)NC(=O)[C@H](CC(C)C)NC(=O)[C@H](Cc1ccccc1)NC(=O)[C@H](CCC(=O)O)NC(=O)[C@H](C)NC(=O)[C@H](CC(C)C)NC(=O)[C@H](CCCNC(=N)N)NC(=O)[C@H](CCC(N)=O)NC(=O)[C@@H](NC(=O)[C@H](CCC(N)=O)NC(=O)[C@H](CC(C)C)NC(=O)[C@@H](NC(=O)[C@H](CO)NC(=O)[C@H](CC(C)C)NC(=O)[C@H](Cc1c[nH]cn1)NC(=O)[C@H](CO)NC(=O)[C@H](C)NC(=O)CC[C@H](NC(=O)CCCCCCCCCCCCCCCCC(=O)O)C(=O)O)[C@@H](C)O)[C@@H](C)O)C(=O)N[C@@H](CC(C)C)C(=O)N1CCC[C@H]1C(=O)N1CCC[C@H]1C(=O)N[C@H](C(=O)N[C@@H](CC(=O)O)C(=O)N[C@H](C(=O)NCC(=O)N[C@@H](CO)C(=O)N[C@@H](CC(N)=O)C(=O)N[C@H](C(=O)N1CCC[C@H]1C(N)=O)[C@@H](C)O)C(C)C)[C@@H](C)O [Compound 34, N^1-[(4S)-4-carboxy-4-(17-carboxyheptadecanoylamino)butanoyl]-[Ala1,Ser2,His3,Leu4,Ser5,Leu7,Gln8,Glu14,His17,Asp21,Pro25,Pro28,Pro29,Asp31,Pro37]-human amylin] ({C18 diacid-γGlu}-ASHLSTLQTQRLAEFLHHSSDNFGPILPPTDVGSNTP-NH2) | 1.91 | 2.06 |
| CC[C@H](C)[C@H](NC(=O)[C@@H]1CCCN1C(=O)CNC(=O)[C@H](Cc1ccccc1)NC(=O)[C@H](Cc1c[nH]cn1)NC(=O)[C@H](Cc1c[nH]cn1)NC(=O)[C@H](CC(C)C)NC(=O)[C@H](Cc1ccccc1)NC(=O)[C@H](CCC(=O)O)NC(=O)[C@H](C)NC(=O)[C@H](CC(C)C)NC(=O)[C@H](CCCNC(=N)N)NC(=O)[C@H](CCC(N)=O)NC(=O)[C@@H](NC(=O)[C@H](CCC(N)=O)NC(=O)[C@H](CC(C)C)NC(=O)[C@@H](NC(=O)[C@H](CO)NC(=O)[C@H](CC(C)C)NC(=O)[C@H](Cc1c[nH]cn1)NC(=O)[C@H](CO)NC(=O)[C@H](C)NC(=O)CC[C@H](NC(=O)CCCCCCCCCCCCCCCCC(=O)O)C(=O)O)[C@@H](C)O)[C@@H](C)O)C(=O)N[C@@H](CC(C)C)C(=O)N1CCC[C@H]1C(=O)N1CCC[C@H]1C(=O)N[C@H](C(=O)N[C@@H](CC(=O)O)C(=O)N[C@H](C(=O)NCC(=O)N[C@@H](CO)C(=O)N[C@@H](CCC(=O)O)C(=O)N[C@H](C(=O)N1CCC[C@H]1C(N)=O)[C@@H](C)O)C(C)C)[C@@H](C)O [Compound 35, N^1-[(4S)-4-carboxy-4-(17-carboxyheptadecanoylamino)butanoyl]-[Ala1,Ser2,His3,Leu4,Ser5,Leu7,Gln8,Glu14,His17,Pro25,Pro28,Pro29,Asp31,Glu35,Pro37],des-(19-22)-human amylin] ({C18 diacid-γGlu}-ASHLSTLQTQRLAEFLHHFGPILPPTDVGSETP-NH2) | 1.6 | 2.26 |
